Results as given in patent publication US20260158177A1, “COMPOUNDS SPECIFIC TO GRANZYME B AND USES THEREOF” (CYTOSITE BIOPHARMA INC., priority 2021, published 2026).
Numbered stars: 1 amine (or outer) side, 2 acyl side, 3 side chain; on linkers, the order of the positions; unused ones are H or OH. Square brackets hold non-standard residues; d marks the D form. Peptide text beside a SMILES is read from it. * marks the point of attachment. X2 = O=C1CN2CCN(CCN(CC3CCN(CC(=O)*)CC3)CC2)CC(=O)[O][Al]([F])[O]1; NOTA(AlF) = O=C1CN2CCN(CCN(CC(=O)*)CC2)CC(=O)[O][Al]([F])[O]1; Haic = O=C1[C@@H](N[*:1])CCc2cccc3c2N1[C@H](C(=O)[*:2])C3; NH(5-HO-2-oxo-oxolan-4-yl) = O=C1CC(N*)C(O)O1; X1 = O=C(CN1CCN([*:1])CC1)[*:2]

What was measured:
[1] = molecular target: T1, granzyme B (Human lymphocytes) (Homo sapiens, UniProt P10144); assay: In vivo PET/CT imaging of ^18F-granzyme B tracers in a Matrigel mouse model of active and pro-form granzyme B; conditions: female nude athymic mice with granzyme B/Matrigel implants, iv ^18F-radiotracer, PET 75-minutes post-injection
T1 construct: Matrigel Mouse Model of Active and Pro-Form Granzyme B; purchased Enzo Life Sciences; host or cells: human lymphocytes
T1 sequence (P10144 21-247): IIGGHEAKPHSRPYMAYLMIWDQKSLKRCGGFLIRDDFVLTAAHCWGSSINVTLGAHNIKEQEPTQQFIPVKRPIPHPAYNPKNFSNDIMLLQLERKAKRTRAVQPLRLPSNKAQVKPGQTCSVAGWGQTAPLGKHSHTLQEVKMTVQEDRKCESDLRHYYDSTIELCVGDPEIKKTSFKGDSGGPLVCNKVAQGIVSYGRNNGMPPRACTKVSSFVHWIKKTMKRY
Description: Female nude athymic (5-6 weeks, 15-30 g) mice were purchased from Jackson Laboratories. Both granzyme B (Human lymphocytes, Enzo Life Sciences) and inactivated human pro-form granzyme B (R&D Systems) were also commercially purchased. […] Each granzyme B enzyme was then brought up to a final concentration of 0.05 μg/ul using phosphate buffered saline (GE, Hyclone). Matrigel (65 μl, Corning) was mixed with 15 μl of 0.75 μg of each granzyme B enzyme (granzyme B and pro-form granzyme B) within each Eppendorf tube. The mice were then anesthetized with 2.5-3% isoflurane mixed with oxygen. Approximately 60-80 μl of granzyme B/Matrigel or the pro-form granzyme B/Matrigel were then injected using a 28-gauge X 0.5-inch insulin syringe (Terumo) to form implants on the right and left shoulder flanks of the mice. Approximately five minutes later, the mice were administered the ^18F-radiotracer via a bolus intravenous injection (approximately 150 μCi in a total volume of 100 ul saline plus an additional ˜25 ul saline to flush the catheter line). After the radiotracer injection, the catheter was removed and measured for any remaining residual radioactivity. The mice were then placed back in their cage for recovery. A nanoScan® PET/CT (Mediso, Hungary) was used for micro-PET/CT imaging in which 15-minute static PET scans were conducted 75-minutes post-injection of the radiotracer. Tera-Tomo™ 3D PET iterative reconstruction along with scatter correction were then conducted post-acquisition. A short high-resolution computed tomography (CT) scan was also performed immediately after to allow for anatomical registration. PET signal in the granzyme B implants were quantified by manually drawing regions of interest (ROIs) over the Matrigel implants based on the fused PET/CT images and the corresponding activity values were determined with VivoQuant (Invicro, Massachusetts). All values were represented as % injected dose per gram (% ID/g). Target to background ratios (TBR's) were then calculated by dividing the granzyme B % ID/g value by the pro-form granzyme B % ID/g value. PET imaging timepoints and granzyme B concentrations used in these experiments were determined in previous studies (data not shown).

[2] = Radioactive metabolite screening in male CD-1 mouse urine by radiometric HPLC; format: in vivo, male CD-1 mice; conditions: for 60 minutes (% parent in urine): male CD-1 mouse urine, 60 minutes post tail vein injection, n=3; for radiometabolites in urine: mice, urine at 60 min post dose
Description: Radioactive metabolite screening studies were performed by injection of [18F] granzyme B tracers in male CD-1 mice followed by analysis of urine samples at 60 minutes by radiometric HPLC.
Briefly, male CD-1 mice were anesthetized prior to dosing with approximately 250 μCi [^18F] granzyme B tracer via tail vein injection (n=3 mice). Urine samples were collected at the 60 minutes post-injection following anesthesia and cervical dislocation. Samples were diluted 100-fold in water prior to injection by HPLC.
Diluted samples were then analyzed on an Agilent 1290 series UPLC UV coupled with a BGO coincidence detector. The HPLC method utilized either 1) Phenomenex Kinetex EVO C18 (150×2.1 mm, 1.7 micron); 100 μL injection volume; flow-rate: 0.5 mL/min; solvent for A: 0.1% formic acid in water; solvent for B: 100% acetonitrile; gradient: initial hold at 5% B hold for 1 min, 5% to 40% in 7 min, hold 40% B for 2 min, increase from 40% to 95% B in 1 min, hold 95% B for 2 min, and then return to 5% B to reequilibrate, or 2) Phenomenex Monolithic C18 (100×4.6 mm); 100 μL injection volume; flow-rate: 1.2 mL/min; solvent for A: 20 mM ammonium acetate in water; solvent for B: 100% methanol; gradient: same as above.

SMILES	in vivo imaging activity [1]	60 minutes (% parent in urine) [2] [%]	radiometabolites in urine [2]
CC[C@H](C)[C@H](NC(=O)CNC(=O)CNC(=O)[C@H](CCC(=O)O)NC(=O)CN1CCC(CN2CCN3CCN(CC2)CC(=O)[O][Al]([F])[O]C(=O)C3)CC1)C(=O)N[C@H]1CCc2cccc3c2N(C1=O)[C@H](C(=O)NC1CC(=O)OC1O)C3 (stereo partly shown) [18F-2-Al] (X2-EGGI[Haic]-{NH(5-HO-2-oxo-oxolan-4-yl)})	good imaging activity		
CC[C@H](C)[C@H](NC(=O)CCNC(=O)CCNC(=O)CN(CC(=O)O)C(=O)CN1CCC(CN2CCN3CCN(CC2)CC(=O)[O][Al]([F])[O]C(=O)C3)CC1)C(=O)N[C@H]1CCc2cccc3c2N(C1=O)[C@H](C(=O)NC1CC(=O)OC1O)C3 (stereo partly shown) [18F-5-Al]		100	
CC[C@H](C)[C@H](NC(=O)CCNC(=O)CC[C@H](NC(=O)CN1CCC(CN2CCN3CCN(CC2)CC(=O)[O][Al]([F])[O]C(=O)C3)CC1)C(=O)O)C(=O)N[C@H]1CCc2cccc3c2N(C1=O)[C@H](C(=O)NC1CC(=O)OC1O)C3 (stereo partly shown) [18F-6-Al]		66.3	
CC[C@H](C)[C@H](NC(=O)CNC(=O)CNC(=O)[C@H](CCC(=O)O)NC(=O)CN1CCN(C(=O)CN2CCN3CCN(CC2)CC(=O)[O][Al]([F])[O]C(=O)C3)CC1)C(=O)N[C@H]1CCc2cccc3c2N(C1=O)[C@H](C(=O)NC1CC(=O)OC1O)C3 (stereo partly shown) [18F-8-Al] ({NOTA(AlF)}-[X1]EGGI[Haic]-{NH(5-HO-2-oxo-oxolan-4-yl)})	good imaging activity		
CC[C@H](C)[C@H](NC(=O)CCNC(=O)CCNC(=O)[C@@H](CCC(=O)O)NC(=O)CN1CCC(CN2CCN3CCN(CC2)CC(=O)[O][Al]([F])[O]C(=O)C3)CC1)C(=O)N[C@H]1CCc2cccc3c2N(C1=O)[C@H](C(=O)NC1CC(=O)OC1O)C3 (stereo partly shown) [Compound ^18F-1-Al]	good imaging activity	100	no radiometabolites were observed
CC[C@H](C)[C@H](NC(=O)CCNC(=O)CN(CC(=O)O)C(=O)CCNC(=O)CN1CCC(CN2CCN3CCN(CC2)CC(=O)[O][Al]([F])[O]C(=O)C3)CC1)C(=O)N[C@H]1CCc2cccc3c2N(C1=O)[C@H](C(=O)NC1CC(=O)OC1O)C3 (stereo partly shown) [Compound ^18F-3-Al]	good imaging activity	100	no radiometabolites were observed
CC[C@H](C)[C@H](NC(=O)COCCNC(=O)[C@@H](CCC(=O)O)NC(=O)[C@@H](CCC(=O)O)NC(=O)CN1CCC(CN2CCN3CCN(CC2)CC(=O)[O][Al]([F])[O]C(=O)C3)CC1)C(=O)N[C@H]1CCc2cccc3c2N(C1=O)[C@H](C(=O)NC1CC(=O)OC1O)C3 (stereo partly shown) [Compound ^18F-4-Al]	good imaging activity	100	no radiometabolites were observed
CC[C@H](C)[C@H](NC(=O)COCCNC(=O)[C@@H](CCC(=O)O)NC(=O)[C@@H](CCC(=O)O)NC(=O)CN1CCN(C(=O)CN2CCN3CCN(CC2)CC(=O)[O][Al]([F])[O]C(=O)C3)CC1)C(=O)N[C@H]1CCc2cccc3c2N(C1=O)[C@H](C(=O)NC1CC(=O)OC1O)C3 (stereo partly shown) [Compound ^18F-10-Al]	good imaging activity		
CC[C@H](C)[C@H](NC(=O)CCNC(=O)CCNC(=O)[C@@H](CCC(=O)O)NC(=O)CN1CCN(C(=O)CN2CCN3CCN(CC2)CC(=O)[O][Al]([F])[O]C(=O)C3)CC1)C(=O)N[C@H]1CCc2cccc3c2N(C1=O)[C@H](C(=O)NC1CC(=O)OC1O)C3 (stereo partly shown) [Compound ^18F-12-Al]	good imaging activity		
CC[C@H](C)[C@H](NC(=O)CCNC(=O)CCNC(=O)CN(CC(=O)O)C(=O)CN1CCN(C(=O)CN2CCN3CCN(CC2)CC(=O)[O][Al]([F])[O]C(=O)C3)CC1)C(=O)N[C@H]1CCc2cccc3c2N(C1=O)[C@H](C(=O)NC1CC(=O)OC1O)C3 (stereo partly shown) [Compound ^18F-13-Al]	good imaging activity		
